Each structure is given as a SMILES string. A value given as a limit tells only on which side of the number the result lay.

In one assay the target is T1, chimeric human H3 receptor (Homo sapiens, UniProt Q9Y5N1).
T1 construct: made in house; host or cells: Sf9 insect cells (baculovirus); P2 membrane preparation
T1 sequence (Q9Y5N1 with tags, fused parts or gaps): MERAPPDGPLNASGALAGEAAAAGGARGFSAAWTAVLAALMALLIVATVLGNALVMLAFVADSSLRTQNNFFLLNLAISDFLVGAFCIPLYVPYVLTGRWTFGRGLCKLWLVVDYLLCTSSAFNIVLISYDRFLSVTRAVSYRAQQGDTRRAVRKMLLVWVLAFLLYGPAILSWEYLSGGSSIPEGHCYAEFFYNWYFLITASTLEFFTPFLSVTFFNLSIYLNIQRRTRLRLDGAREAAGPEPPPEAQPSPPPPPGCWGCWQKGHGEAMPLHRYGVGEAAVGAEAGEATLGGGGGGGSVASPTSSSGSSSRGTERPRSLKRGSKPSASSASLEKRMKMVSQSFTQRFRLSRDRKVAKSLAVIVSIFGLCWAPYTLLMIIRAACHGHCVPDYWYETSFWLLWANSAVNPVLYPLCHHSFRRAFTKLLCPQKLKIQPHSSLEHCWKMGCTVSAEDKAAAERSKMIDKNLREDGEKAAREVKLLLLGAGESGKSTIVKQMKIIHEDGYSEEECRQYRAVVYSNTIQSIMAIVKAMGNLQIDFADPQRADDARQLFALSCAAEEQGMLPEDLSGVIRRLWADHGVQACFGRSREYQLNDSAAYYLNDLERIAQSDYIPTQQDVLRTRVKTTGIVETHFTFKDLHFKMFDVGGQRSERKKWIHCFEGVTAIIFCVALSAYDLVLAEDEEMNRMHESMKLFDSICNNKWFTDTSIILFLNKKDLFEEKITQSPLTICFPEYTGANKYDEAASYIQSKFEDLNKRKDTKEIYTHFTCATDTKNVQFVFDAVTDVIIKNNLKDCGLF
Nature of the assay: Chimeric human H3 receptor GTP binding assay (agonist-stimulated GTP-gamma35S binding, Example 7). In kind it is biochemical. The conditions noted are these: Table I; P2 membranes of Sf9 cells, 1 μM histamine as agonist, Ki from IC50 by Cheng-Prusoff. Summed up: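 Sf9 membranes co-expressing chimeric human H3 receptor and heterotrimeric G-protein, 35 μg/tube, in pH 7.4 Tris buffer with 10 μM GDP. Test compounds (10^−10–10^−6 M) competed against 1 μM histamine, […] GTP-gamma35S, 60 min at room temperature. Filter-bound radioactivity counted; IC50 converted to Ki by Cheng-Prusoff. Agonism/inverse agonism tested without histamine (EC50).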
A general note: GTPγS resists hydrolysis and so accumulates on activated G proteins.
In the case of `O=C(CN1CCc2ncccc2C1)N1CCN(C2CCC2)CC1` [Compound 65, 6-[2-(4-cyclobutylpiperazin-1-yl)-2-oxoethyl]-5,6,7,8-tetrahydro-1,6-naphthyridine], the inhibition constant (Ki) (usually the dissociation constant of the complex between target and ligand, obtained from inhibition or displacement) is under 1000 nM.

The same assay, now with this note: Table II "Ki", symbol *; assay of Example 7.
For the molecule `C[C@H]1CN(C(=O)CN2CCc3cc(-c4cncnc4)ccc3C2)CCN1C1C[C@H]2CC[C@@H]1C2` (stereo partly drawn) [Compound 624, 2-(2-{(3S)-4-[(1R,4S)-bicyclo[2.2.1]hept-2-yl]-3-methylpiperazin-1-yl}-2-oxoethyl)-6-pyrimidin-5-yl-1,2,3,4-tetrahydroisoquinoline], the Ki was under 1000 nM.

Regarding `CCOc1ccc(-c2ccc3c(c2)CCN(CC(=O)N2CCN(C4CCC4)CC2)C3)cc1` [Compound 528, 2-[2-(4-cyclobutylpiperazin-1-yl)-2-oxoethyl]-6-(4-ethoxyphenyl)-1,2,3,4-tetrahydroisoquinoline], the Ki was under 1000 nM.

Turning to `COCCNc1ccc2c(n1)CCN(CC(=O)N1CCN(C3CCC3)CC1)C2` [Compound 663, 6-[2-(4-cyclobutylpiperazin-1-yl)-2-oxoethyl]-N-(2-methoxyethyl)-5,6,7,8-tetrahydro-1,6-naphthyridin-2-amine], the Ki was under 1000 nM.

Turning to `CCC(CC)Nc1ccc2c(n1)CCN(CC(=O)N1CCN(C3CCC3)CC1)C2` [Compound 662, 6-[2-(4-cyclobutylpiperazin-1-yl)-2-oxoethyl]-N-(1-ethylpropyl)-5,6,7,8-tetrahydro-1,6-naphthyridin-2-amine], the Ki was under 1000 nM.

`O=C(CN1CCc2cc(-c3ccc(C(F)(F)F)nc3)ccc2C1)N1CCN(C2CCC2)CC1` [Compound 648, 2-[2-(4-cyclobutylpiperazin-1-yl)-2-oxoethyl]-6-[6-(trifluoromethyl)pyridin-3-yl]-1,2,3,4-tetrahydroisoquinoline]: the Ki is under 1000 nM.

Regarding `O=C(CN1CCc2nc(NC3CCCC3)ccc2C1)N1CCN(C2CCC2)CC1` [Compound 656, 6-[2-(4-cyclobutylpiperazin-1-yl)-2-oxoethyl]-N-cyclopentyl-5,6,7,8-tetrahydro-1,6-naphthyridin-2-amine], the Ki is under 1000 nM.

Staying with this assay, now noted: Table II; "*" = Ki in assay of Example 7 less than 1 micromolar.
In the case of `Cc1cnn(-c2ccc3c(c2)CCN(CC(=O)N2CCN(C4CCC4)CC2)C3)c1` [Compound 217, 2-[2-(4-cyclobutylpiperazin-1-yl)-2-oxoethyl]-6-(4-methyl-1H-pyrazol-1-yl)-1,2,3,4-tetrahydroisoquinoline], the inhibition constant (Ki) was under 1000 nM.

For `Cn1cc(-n2ncc3c2CCN(CC(=O)N2CCN(C4CCC4)CC2)C3)ccc1=O` [Compound 263, 5-{5-[2-(4-cyclobutylpiperazin-1-yl)-2-oxoethyl]-4,5,6,7-tetrahydro-1H-pyrazolo[4,3-c]pyridin-1-yl}-1-methytpyridin-2(1H)-one], the Ki is under 1000 nM.

On to `Cc1ccc(-n2cc3c(n2)CCN(CC(=O)N2CCN(C4CCC4)CC2)C3)nc1` [Compound 261, 5-[2-(4-cyclobutylpiperazin-1-yl)-2-oxoethyl]-2-(5-methylpyridin-2-yl)-4,5,6,7-tetrahydro-2H-pyrazolo[4,3-c]pyridine], for which the Ki was under 1000 nM.

Consider `O=C(CN1CCc2cc(Oc3ccc(C(F)(F)F)cn3)ccc2C1)N1CCN(C2CCC2)CC1` [Compound 198, 2-[2-(4-cyclobutylpiperazin-1-yl)-2-oxoethyl]-6-{[5-(trifluoromethyl)pyridin-2-yl]oxy}-1,2,3,4-tetrahydroisoquinoline], for which the inhibition constant Ki is under 1000 nM.

On to `O=C(CN1CCc2cc(-c3cccc(F)c3)nnc2C1)N1CCN(C2CCC2)CC1` [Compound 233, 7-[2-(4-cyclobutylpiperazin-1-yl)-2-oxoethyl]-3-(3-fluorophenyl)-5,6,7,8-tetrahydropyrido[3,4-c]pyridazine], for which the Ki was under 1000 nM.

The same assay, now with this note: assay of Example 7; "*" in Ki of Table II.
Regarding `O=C(CN1CCc2cc(-c3ccc4c(c3)OCO4)ccc2C1)N1CCN(C2CCC2)CC1` [Compound 377, 6-(1,3-benzodioxol-5-yl)-2-[2-(4-cyclobutylpiperazin-1-yl)-2-oxoethyl]-1,2,3,4-tetrahydroisoquinoline], the Ki was under 1000 nM.

These data come from US20110082130A1 (LIGAND PHARMACEUTICALS, INC., priority 2006, published 2011).
